Our source for the IC50 values is patent US8664257B2, “Oxygen-substituted 3-heteroaroylamino-propionic acid derivatives and their use as pharmaceuticals” (Sanofi, priority 2010, dated 2014).

Bounds are passed on as bounds.

In the first experiment the target is T1, Recombinant human cathepsin A (Homo sapiens, UniProt P10619).
T1 construct: Recombinant human cathepsin A (residues 29-480, with a C-terminal 10-His tag); 10-His (C); purchased R&D Systems 1049-SE
T1 sequence (P10619 29-312 limits assumed): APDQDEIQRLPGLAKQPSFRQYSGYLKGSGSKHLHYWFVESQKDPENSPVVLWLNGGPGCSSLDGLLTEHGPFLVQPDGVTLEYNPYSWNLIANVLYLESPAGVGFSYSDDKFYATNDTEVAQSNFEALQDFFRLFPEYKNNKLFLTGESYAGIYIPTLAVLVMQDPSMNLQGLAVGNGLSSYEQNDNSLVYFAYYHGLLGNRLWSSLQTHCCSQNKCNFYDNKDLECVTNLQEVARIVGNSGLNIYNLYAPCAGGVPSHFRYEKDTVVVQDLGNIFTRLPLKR
T1 sequence (P10619 327-480 limits assumed): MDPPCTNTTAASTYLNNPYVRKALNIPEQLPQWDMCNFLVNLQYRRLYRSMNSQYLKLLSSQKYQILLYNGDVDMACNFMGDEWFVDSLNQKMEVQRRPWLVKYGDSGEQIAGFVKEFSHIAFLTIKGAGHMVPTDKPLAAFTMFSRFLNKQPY
Kind of experiment: Cathepsin A inhibitory activity. It is filed as biochemical. The following applies: pharmacological test "Cathepsin A inhibitory activity"; IC50 given as class A/B/C; read-out: Activity (2): Cathepsin A inhibitory activity, IC50 class. An outline of the steps: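 Read-out was microfluidic separation of cleaved vs. uncleaved Bodipy FL-bradykinin (2 μM), giving turnover, % inhibition and IC50. Compound and 833 ng/ml enzyme met for 15 min RT in pH 5.5 MES/DTT before substrate (15 min RT). The 29-480 His-tagged human enzyme was first activated by cathepsin L, then E-64 (10 μM).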
The term IC50 denotes the concentration that inhibits the measured activity by half. With `COc1ccc(C(CC(=O)O)NC(=O)c2cc(O)n(-c3ccccc3Cl)n2)c(C)c1` (centres unmarked) [Example 203], the half-inhibitory concentration (IC50) fell in the range of 100 to 1000 nM.
On the same count and under the same terms, in the case of `O=C(O)C[C@H](NC(=O)c1cc(O)n(-c2ccccc2Cl)n1)c1ccc(F)cc1` [Example 211] it was 100 to 1000 nM; in that of `COc1ccc([C@H](CC(=O)O)NC(=O)c2cc(O)n(-c3ccccc3)n2)cn1` [Example 144], 100 to 1000 nM.
Take `COc1cccc(-c2ccc(C(CC(=O)O)NC(=O)c3cc(O)n(-c4ccccc4Cl)n3)cc2)c1` (centres unmarked) [Example 157]: the half-maximal inhibitory concentration (IC50) was in the range of 100 to 1000 nM.
The same measure, in the same setting: in the case of `O=C(O)C[C@H](NC(=O)c1cc(O)n(-c2ccccc2)n1)c1cccc(Cl)c1` [Example 167] it was 100 to 1000 nM.
The same measure, in the same setting: in the case of `COc1ccc(Cl)cc1C(CC(=O)O)NC(=O)c1cc(O)n(-c2cccc(Cl)c2)n1` (centres unmarked) [Example 255] it was 100 to 1000 nM.

The experiment is the same for the next values; noted with them: read-out: Activity (2): Cathepsin A inhibitory activity (IC50 class).
Regarding `Cc1ccccc1[C@H](CC(=O)O)NC(=O)c1cc(OC[C@@](C)(O)C(C)(C)C)n(-c2ccccc2F)n1` (single isomer, unassigned) [Example 748], the IC50 was < 100 nM.
For `Cc1ccc(C(CC(=O)O)NC(=O)c2cc(O)n(-c3ccccc3)n2)c(F)c1` (centres unmarked) [Example 564, 3-(2-Fluoro-4-methyl-phenyl)-3-[(5-hydroxy-1-phenyl-1H-pyrazole-3-carbonyl)-amino]-propionic acid], the half-inhibitory concentration (IC50) lay within 100 to 1000 nM.
Consider `Cc1ccccc1[C@H](CC(=O)O)NC(=O)c1cc(OC(=O)N2CCCC2)n(-c2ccccc2F)n1` [Example 613, Pyrrolidine-1-carboxylic acid 5-((S)-2-carboxy-1-o-tolyl-ethylcarbamoyl)-2-(2-fluoro-phenyl)-2H-pyrazol-3-yl ester], for which the half-maximal inhibitory concentration (IC50) is < 100 nM.
On the same count and under the same terms, in the case of `CC(C)(C)[C@@](C)(O)COc1cc(C(=O)N[C@@H](CC(=O)O)c2ccc(F)cc2)nn1-c1ccccc1F` [Example 771, (S)-3-(4-Fluoro-phenyl)-3-{[1-(2-fluoro-phenyl)-5-((R)-2-hydroxy-2,3,3-trimethyl-butoxy)-1H-pyrazole-3-carbonyl]-amino}-propionic acid] it was < 100 nM; in that of `CCOc1cc(C(=O)N[C@@H](CC(=O)O)c2ccccc2C(F)(F)F)nn1-c1ccccc1F` [Example 721], 100 to 1000 nM.
Take `Cc1ccccc1[C@H](CC(=O)O)NC(=O)c1cc(OC[C@](C)(O)C2CC2)n(-c2ccccc2F)n1` (single isomer, unassigned) [Example 763]: the concentration for half-maximal inhibition (IC50) was < 100 nM.
The same measure, in the same setting: in the case of `Cc1ccccc1[C@H](CC(=O)O)NC(=O)c1cc(OCCc2ccccc2)n(-c2ccccc2F)n1` [Example 625] it was < 100 nM.
With `O=C(O)C[C@H](NC(=O)c1cc(OCC2CC2)n(-c2ccccc2F)n1)c1ccc(Cl)cc1` [Example 691], the half-inhibitory concentration (IC50) was 100 to 1000 nM.
Same read-out and setting: in the case of `CCOc1cc(C(=O)NC(CC(=O)O)c2ccc(OC)cc2C)nn1-c1ccccc1F` (centres unmarked) [Example 714] it was < 100 nM; in that of `COc1c(F)c(C(=O)N[C@@H](CC(=O)O)c2ccccc2C)nn1-c1ccccc1F` [Example 595], < 100 nM; in that of `Cc1ccccc1[C@H](CC(=O)O)NC(=O)c1cc(OC2CCCCC2)n(-c2ccccc2F)n1` [Example 631], < 100 nM.
On the same count and under the same terms, in the case of `O=C(O)CC(NC(=O)c1cc(O)n(-c2ccccc2Cl)n1)c1ccc(-c2ccccc2F)cc1` (centres unmarked) [Example 585, 3-{[1-(2-Chloro-phenyl)-5-hydroxy-1H-pyrazole-3-carbonyl]-amino}-3-(2′-fluoro-biphenyl-4-yl)-propionic acid] it was 100 to 1000 nM; in that of `COc1ccc(C(F)(F)F)cc1C(CC(=O)O)NC(=O)c1cc(O)n(-c2ccccc2)n1` (centres unmarked) [Example 548, 3-[(5-Hydroxy-1-phenyl-1H-pyrazole-3-carbonyl)-amino]-3-(2-methoxy-5-trifluoromethyl-phenyl)-propionic acid], 1000 to 30000 nM; in that of `Cc1ccccc1[C@H](CC(=O)O)NC(=O)c1cc(OCC2CCCCO2)n(-c2ccccc2F)n1` (some centres unmarked) [Example 653], < 100 nM.
`COc1cccc([C@H](CC(=O)O)NC(=O)c2cc(OC)n(-c3ccccc3F)n2)c1` [Example 669]: the IC50 is 100 to 1000 nM.
In the case of `COc1cc(C(=O)N[C@@H](CC(=O)O)c2ccccc2Cl)nn1-c1ccccc1F` [Example 676], the half-maximal inhibitory concentration (IC50) was < 100 nM.

The same experiment, now with this note: read-out: Activity (2): Cathepsin A inhibitory activity, IC50 class.
Take `Cc1cccc(C(CC(=O)O)NC(=O)c2cc(O)n(-c3ccc(F)cc3)n2)c1C` (centres unmarked) [Example 358]: the concentration for half-maximal inhibition (IC50) is 100 to 1000 nM.
For `Cc1ccccc1[C@H](CC(=O)O)NC(=O)c1cc(OC[C@](C)(O)C(C)C)n(-c2ccccc2F)n1` [Example 857, (S)-3-{[1-(2-Fluoro-phenyl)-5-((R)-2-hydroxy-2,3-dimethyl-butoxy)-1H-pyrazole-3-carbonyl]-amino}-3-o-tolyl-propionic acid], the IC50 was < 100 nM.
On the same count and under the same terms, in the case of `COc1ccccc1[C@@H](NC(=O)c1cc(O)n(-c2ccc(Cl)cc2)n1)[C@@H](O)C(=O)O` [Example 282] it was 1000 to 30000 nM; in that of `COc1ccc(Cl)cc1C(CC(=O)O)NC(=O)c1cc(O)n(-c2ccccc2)n1` (centres unmarked) [Example 375], 100 to 1000 nM.
On the same count and under the same terms, in the case of `O=C(O)CC(NC(=O)c1cc(O)n(-c2ccc(F)cc2)n1)c1cccc2c1OCO2` (centres unmarked) [Example 336] it was 100 to 1000 nM; in that of `COc1ccc(C(CC(=O)O)NC(=O)c2cc(O)n(-c3ccccc3)n2)cc1OC` (centres unmarked) [Example 11], 1000 to 30000 nM.
As to `Cc1cc(C)cc(-n2nc(C(=O)NC(CC(=O)O)c3ccccc3C)cc2O)c1` (centres unmarked) [Example 78], the half-maximal inhibitory concentration (IC50) was 1000 to 30000 nM.
Still for that read-out and setting: in the case of `COc1ccc(C(CC(=O)O)NC(=O)c2cc(O)n(-c3cc(C)ccc3C)n2)cc1F` (centres unmarked) [Example 54] it was 1000 to 30000 nM; in that of `N#Cc1ccc([C@H](CC(=O)O)NC(=O)c2cc(O)n(-c3ccc(F)cc3)n2)cc1` [Example 341], 100 to 1000 nM; in that of `Cc1ccccc1C(CC(=O)O)NC(=O)c1cc(O)n(-c2ccc(F)c(Cl)c2)n1` (centres unmarked) [Example 80], 100 to 1000 nM.
On to `Cc1cc(F)ccc1C(CC(=O)O)NC(=O)c1cc(O)n(-c2ccc(Cl)cc2)n1` (centres unmarked) [Example 292], for which the IC50 fell in the range of 100 to 1000 nM.
Same read-out and setting: in the case of `COc1ccc([C@H](CC(=O)O)NC(=O)c2cc(OC[C@@](C)(O)C(C)C)n(-c3ccccc3F)n2)cc1` [Example 840, (S)-3-{[1-(2-Fluoro-phenyl)-5-((S)-2-hydroxy-2,3-dimethyl-butoxy)-1H-pyrazole-3-carbonyl]-amino}-3-(4-methoxy-phenyl)-propionic acid] it was 1000 to 30000 nM.
The same measure, in the same setting: in the case of `O=C(O)C[C@H](NC(=O)c1cc(O)n(-c2ccc(F)cc2)n1)c1cccnc1` [Example 372] it was 1000 to 30000 nM.

The same experiment, now with this note: recombinant human cathepsin A 833 ng/ml, Bodipy FL-labeled bradykinin 2 μM, pH 5.5; read-out: CATH-A IC50.
For the compound `Cc1ccccc1[C@H](CC(=O)O)NC(=O)c1cc(OC[C@@](C)(O)C(C)(C)C)n(-c2ccccc2F)n1` (single isomer, unassigned) [Example 748], the half-maximal inhibitory concentration (IC50) worked out at 2.56 nM.
`Cc1ccc(C(CC(=O)O)NC(=O)c2cc(O)n(-c3ccccc3)n2)c(F)c1` (centres unmarked) [Example 564, 3-(2-Fluoro-4-methyl-phenyl)-3-[(5-hydroxy-1-phenyl-1H-pyrazole-3-carbonyl)-amino]-propionic acid]: the IC50 came out at 459 nM.
Consider `Cc1ccc(F)cc1C(CC(=O)O)NC(=O)c1cc(O)n(-c2cccc(Cl)c2)n1` (centres unmarked) [Example 510, 3-{[1-(3-Chloro-phenyl)-5-hydroxy-1H-pyrazole-3-carbonyl]-amino}-3-(5-fluoro-2-methyl-phenyl)-propionic acid], for which the concentration for half-maximal inhibition (IC50) was found to be 175 nM.
As for `CC(C)(C)[C@@](C)(O)COc1cc(C(=O)N[C@@H](CC(=O)O)c2ccc(F)cc2)nn1-c1ccccc1F` [Example 771, (S)-3-(4-Fluoro-phenyl)-3-{[1-(2-fluoro-phenyl)-5-((R)-2-hydroxy-2,3,3-trimethyl-butoxy)-1H-pyrazole-3-carbonyl]-amino}-propionic acid], the IC50 was found to be 1.97 nM.
Still for that read-out and setting: in the case of `COc1ccc(C(F)(F)F)cc1C(CC(=O)O)NC(=O)c1cc(O)n(-c2ccccc2)n1` (centres unmarked) [Example 548, 3-[(5-Hydroxy-1-phenyl-1H-pyrazole-3-carbonyl)-amino]-3-(2-methoxy-5-trifluoromethyl-phenyl)-propionic acid] it was 7760 nM.

Staying with this experiment, now noted: recombinant human cathepsin A; read-out: Activity (2): Cathepsin A inhibitory activity, IC50 class.
For `O=C(O)CC(NC(=O)c1cc(O)n(-c2ccccc2F)n1)c1cc(F)ccc1C(F)(F)F` (centres unmarked) [Example 477], the concentration for half-maximal inhibition (IC50) fell in the range of 100 to 1000 nM.
The same measure, in the same setting: in the case of `Cc1ccc(F)cc1C(CC(=O)O)NC(=O)c1cc(O)n(-c2cccc(Cl)c2)n1` (centres unmarked) [Example 510, 3-{[1-(3-Chloro-phenyl)-5-hydroxy-1H-pyrazole-3-carbonyl]-amino}-3-(5-fluoro-2-methyl-phenyl)-propionic acid] it was 100 to 1000 nM; in that of `CN(C)c1ccc(C(CC(=O)O)NC(=O)c2cc(O)n(-c3ccccc3Cl)n2)c(Cl)c1` (centres unmarked) [Example 456], 1000 to 30000 nM.
In the case of `O=C(O)CC(NC(=O)c1cc(O)n(-c2ccccc2F)n1)c1cc(Cl)ccc1Cl` (centres unmarked) [Example 479], the IC50 was < 100 nM.
